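Interpolation was linear, between the two tested concentrations surrounding the appropriate level; five concentrations were tested over 48 hours in 96-well plates. GI50 = concentration required for 50% inhibition of growth.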 Active and inactive are the calls of the source. No stated cut-off is given here; in the data, active = GI50 up to about 1.1 µM and inactive = higher.
What was measured:
Experiment in all cases: inhibition of tumour cell growth, NCI panel, 48 h
786-0 = system: 786-0
A549 = system: A549
ACHN = system: ACHN
CAKI-1 = system: CAKI-1
CCRF-CEM = system: CCRF-CEM
COLO 205 = system: COLO 205
DLD-1 = system: DLD-1
DMS-114 = system: DMS-114
DMS-273 = system: DMS-273
EKVX = system: EKVX
HCC 2998 = system: HCC 2998
HCT-116 = system: HCT-116
HCT-15 = system: HCT-15
HL-60 = system: HL-60
HOP-18 = system: HOP-18
HOP-62 = system: HOP-62
HOP-92 = system: HOP-92
HT-29 = system: HT-29
IGROV-1 = system: IGROV-1
K562 = system: K562
KM-20L2 = system: KM-20L2
KM12 = system: KM12
LOX IMVI = system: LOX IMVI
LXFL 529 = system: LXFL 529
M14 = system: M14
M19-MEL = system: M19-MEL
MOLT-4 = system: MOLT-4
Malme-3M = system: Malme-3M
NCI-H226 = system: NCI-H226
NCI-H23 = system: NCI-H23
NCI-H460 = system: NCI-H460
NCI-H522 = system: NCI-H522
OVCAR-3 = system: OVCAR-3
OVCAR-4 = system: OVCAR-4
OVCAR-5 = system: OVCAR-5
OVCAR-8 = system: OVCAR-8
RPMI-8226 = system: RPMI-8226
RXF 393 = system: RXF 393
SF-268 = system: SF-268
SF-295 = system: SF-295
SF-539 = system: SF-539
SK-MEL-28 = system: SK-MEL-28
SK-MEL-2 = system: SK-MEL-2
SK-MEL-5 = system: SK-MEL-5
SK-OV-3 = system: SK-OV-3
SN12C = system: SN12C
SNB-19 = system: SNB-19
SNB-75 = system: SNB-75
SNB-78 = system: SNB-78
SR = system: SR
SW-620 = system: SW-620
TK-10 = system: TK-10
U-251 = system: U-251
UACC-257 = system: UACC-257
UACC-62 = system: UACC-62
UO-31 = system: UO-31
XF498 = system: XF498
A498 = system: A498
MCF7 = system: MCF7
NCI/ADR-RES = system: NCI/ADR-RES

Structure (SMILES): CCOc1ccc(/C(Cl)=C(\C=O)c2ccc(OC)c(OC)c2)cc1OCC
- GI50 (786-0): 64.9 µM (inactive)
- GI50 (A549): 46.9 µM (inactive)
- GI50 (ACHN): 37.1 µM (inactive)
- GI50 (CAKI-1): > 100 µM (inactive)
- GI50 (CCRF-CEM): 12.7 µM (inactive)
- GI50 (COLO 205): 61.5 µM (inactive)
- GI50 (DLD-1): 68.7 µM (inactive)
- GI50 (DMS-114): 11 µM (inactive)
- GI50 (DMS-273): 45.8 µM (inactive)
- GI50 (EKVX): 65.2 µM (inactive)
- GI50 (HCC 2998): 30 µM (inactive)
- GI50 (HCT-116): 33.8 µM (inactive)
- GI50 (HCT-15): 28.3 µM
- GI50 (HL-60): 21.7 µM (inactive)
- GI50 (HOP-18): > 100 µM (inactive)
- GI50 (HOP-62): 30.1 µM (inactive)
- GI50 (HOP-92): 58.2 µM (inactive)
- GI50 (HT-29): 41.1 µM (inactive)
- GI50 (IGROV-1): > 100 µM (inactive)
- GI50 (K562): 23.5 µM (inactive)
- GI50 (KM-20L2): > 100 µM (inactive)
- GI50 (KM12): 91.4 µM (inactive)
- GI50 (LOX IMVI): 64.1 µM (inactive)
- GI50 (LXFL 529): 30.5 µM (inactive)
- GI50 (M14): > 100 µM (inactive)
- GI50 (M19-MEL): 33 µM (inactive)
- GI50 (MOLT-4): 27.9 µM (inactive)
- GI50 (Malme-3M): 37.5 µM (inactive)
- GI50 (NCI-H226): 67.1 µM (inactive)
- GI50 (NCI-H23): 23.3 µM (inactive)
- GI50 (NCI-H460): 83.4 µM (inactive)
- GI50 (NCI-H522): 18.2 µM (inactive)
- GI50 (OVCAR-3): > 100 µM (inactive)
- GI50 (OVCAR-4): 38.7 µM (inactive)
- GI50 (OVCAR-5): > 100 µM (inactive)
- GI50 (OVCAR-8): 46.8 µM (inactive)
- GI50 (RPMI-8226): 28.1 µM (inactive)
- GI50 (RXF 393): 31.4 µM (inactive)
- GI50 (SF-268): 63.8 µM (inactive)
- GI50 (SF-295): 72.6 µM (inactive)
- GI50 (SF-539): 48.9 µM (inactive)
- GI50 (SK-MEL-28): > 100 µM (inactive)
- GI50 (SK-MEL-2): > 100 µM (inactive)
- GI50 (SK-MEL-5): 22.5 µM (inactive)
- GI50 (SK-OV-3): > 100 µM (inactive)
- GI50 (SN12C): 44.6 µM (inactive)
- GI50 (SNB-19): 55.3 µM (inactive)
- GI50 (SNB-75): 29.9 µM (inactive)
- GI50 (SNB-78): 36.8 µM (inactive)
- GI50 (SR): 20.3 µM (inactive)
- GI50 (SW-620): 83.9 µM (inactive)
- GI50 (TK-10): 80.9 µM (inactive)
- GI50 (U-251): 32.9 µM (inactive)
- GI50 (UACC-257): 32.3 µM (inactive)
- GI50 (UACC-62): 33 µM (inactive)
- GI50 (UO-31): 53 µM (inactive)
- GI50 (XF498): 53.2 µM (inactive)

Structure (SMILES): CSc1nc2c(ncn2C2OC(CO)C(O)C(O)C2O)c(=O)[nH]1 (stereo not given)
- GI50 (A498): > 100 µM (inactive)
- GI50 (A549): > 100 µM (inactive)
- GI50 (CCRF-CEM): > 100 µM (inactive)
- GI50 (COLO 205): > 100 µM (inactive)
- GI50 (DLD-1): > 100 µM (inactive)
- GI50 (DMS-114): > 100 µM (inactive)
- GI50 (DMS-273): > 100 µM (inactive)
- GI50 (EKVX): > 100 µM (inactive)
- GI50 (HCC 2998): > 100 µM (inactive)
- GI50 (HCT-116): > 100 µM (inactive)
- GI50 (HCT-15): > 100 µM
- GI50 (HL-60): > 100 µM (inactive)
- GI50 (HOP-18): > 100 µM (inactive)
- GI50 (HOP-62): > 92.5 µM (inactive)
- GI50 (HOP-92): > 100 µM (inactive)
- GI50 (HT-29): > 100 µM (inactive)
- GI50 (IGROV-1): > 100 µM (inactive)
- GI50 (K562): > 100 µM (inactive)
- GI50 (KM-20L2): > 100 µM (inactive)
- GI50 (KM12): > 100 µM (inactive)
- GI50 (LOX IMVI): > 100 µM (inactive)
- GI50 (M19-MEL): > 100 µM (inactive)
- GI50 (MCF7): > 100 µM (inactive)
- GI50 (MOLT-4): > 100 µM (inactive)
- GI50 (Malme-3M): > 100 µM (inactive)
- GI50 (NCI-H226): > 100 µM (inactive)
- GI50 (NCI-H23): > 100 µM (inactive)
- GI50 (NCI-H460): > 100 µM (inactive)
- GI50 (NCI-H522): > 100 µM (inactive)
- GI50 (NCI/ADR-RES): > 100 µM (inactive)
- GI50 (OVCAR-3): > 100 µM (inactive)
- GI50 (OVCAR-4): > 100 µM (inactive)
- GI50 (OVCAR-5): > 100 µM (inactive)
- GI50 (OVCAR-8): > 100 µM (inactive)
- GI50 (RPMI-8226): > 100 µM (inactive)
- GI50 (RXF 393): > 100 µM (inactive)
- GI50 (SF-268): > 100 µM (inactive)
- GI50 (SF-295): 82.2 µM (inactive)
- GI50 (SF-539): > 100 µM (inactive)
- GI50 (SK-MEL-28): > 100 µM (inactive)
- GI50 (SK-MEL-2): > 100 µM (inactive)
- GI50 (SK-MEL-5): > 100 µM (inactive)
- GI50 (SK-OV-3): > 100 µM (inactive)
- GI50 (SN12C): > 100 µM (inactive)
- GI50 (SNB-19): > 100 µM (inactive)
- GI50 (SNB-75): > 100 µM (inactive)
- GI50 (SNB-78): > 100 µM (inactive)
- GI50 (SW-620): > 100 µM (inactive)
- GI50 (U-251): > 83.8 µM (inactive)
- GI50 (UACC-257): > 100 µM (inactive)
- GI50 (UACC-62): > 100 µM (inactive)
- GI50 (UO-31): > 100 µM (inactive)
- GI50 (XF498): > 100 µM (inactive)

Structure (SMILES): CC12CP(=O)(c3ccccc3)CC1C2(Cl)Cl (stereo not given)
- GI50 (786-0): > 100 µM (inactive)
- GI50 (A549): > 100 µM (inactive)
- GI50 (CCRF-CEM): > 100 µM (inactive)
- GI50 (COLO 205): > 100 µM (inactive)
- GI50 (DLD-1): > 100 µM (inactive)
- GI50 (DMS-114): > 100 µM (inactive)
- GI50 (DMS-273): > 100 µM (inactive)
- GI50 (EKVX): > 100 µM (inactive)
- GI50 (HCC 2998): > 100 µM (inactive)
- GI50 (HCT-116): > 100 µM (inactive)
- GI50 (HL-60): > 10 µM (inactive)
- GI50 (HOP-18): > 100 µM (inactive)
- GI50 (HOP-62): > 100 µM (inactive)
- GI50 (HT-29): > 100 µM (inactive)
- GI50 (IGROV-1): > 100 µM (inactive)
- GI50 (K562): > 100 µM (inactive)
- GI50 (KM-20L2): > 100 µM (inactive)
- GI50 (KM12): > 100 µM (inactive)
- GI50 (LOX IMVI): > 100 µM (inactive)
- GI50 (LXFL 529): > 100 µM (inactive)
- GI50 (M14): > 100 µM (inactive)
- GI50 (M19-MEL): > 100 µM (inactive)
- GI50 (MOLT-4): > 100 µM (inactive)
- GI50 (NCI-H23): > 100 µM (inactive)
- GI50 (NCI-H460): > 100 µM (inactive)
- GI50 (NCI-H522): > 100 µM (inactive)
- GI50 (OVCAR-3): > 100 µM (inactive)
- GI50 (OVCAR-4): > 100 µM (inactive)
- GI50 (OVCAR-8): > 100 µM (inactive)
- GI50 (RPMI-8226): > 100 µM (inactive)
- GI50 (RXF 393): > 100 µM (inactive)
- GI50 (SF-295): > 100 µM (inactive)
- GI50 (SF-539): > 100 µM (inactive)
- GI50 (SK-MEL-28): > 100 µM (inactive)
- GI50 (SK-MEL-5): > 100 µM (inactive)
- GI50 (SK-OV-3): > 100 µM (inactive)
- GI50 (SN12C): > 100 µM (inactive)
- GI50 (SNB-19): > 100 µM (inactive)
- GI50 (SNB-75): 28.1 µM (inactive)
- GI50 (SNB-78): > 100 µM (inactive)
- GI50 (SW-620): > 100 µM (inactive)
- GI50 (TK-10): > 100 µM (inactive)
- GI50 (U-251): > 100 µM (inactive)
- GI50 (UACC-62): > 100 µM (inactive)
- GI50 (XF498): > 100 µM (inactive)
